Tested on: SW 1271 complex spheroids, viability
Assay: Anticancer human tumor SW 1271 cell line growth inhibition [LSD1];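 also: spheroids exposed to agents for 7 days before luminescence read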;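 as to viability, T/C: 100% = DMSO vehicle control viability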
Details: for IC50: curve of first compound; for viability, T/C: stronger effect = lower value
Outline: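 Complex spheroids of tumor cells with HUVEC and human MSCs, exposed to iadademstat combined with other agents. Each agent tested in half-log steps from near clinical Cmax (else 10 microM top), DMSO ≤0.25%.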

[1] = second compound 0.1 µM, first compound 0.00949 µM
[2] = second compound 0.1 µM, first compound 0.03 µM
[3] = second compound 0.1 µM, first compound 0.0949 µM
[4] = second compound 0.1 µM, first compound 0.3 µM
[5] = second compound 0.316 µM, first compound 0.00949 µM
[6] = second compound 0.316 µM, first compound 0.03 µM
[7] = second compound 0.316 µM, first compound 0.0949 µM
[8] = second compound 0.316 µM, first compound 0.3 µM
[9] = second compound 1 µM, first compound 0.00949 µM
[10] = second compound 1 µM, first compound 0.03 µM
[11] = second compound 1 µM, first compound 0.0949 µM
[12] = second compound 1 µM, first compound 0.3 µM
[13] = second compound 3.16 µM, first compound 0.00949 µM
[14] = second compound 3.16 µM, first compound 0.03 µM
[15] = second compound 3.16 µM, first compound 0.0949 µM
[16] = second compound 3.16 µM, first compound 0.3 µM
[17] = second compound 10 µM, first compound 0.00949 µM
[18] = second compound 10 µM, first compound 0.03 µM
[19] = second compound 10 µM, first compound 0.0949 µM
[20] = second compound 10 µM, first compound 0.3 µM

Work on `CCN(c1cc(-c2ccc(CN3CCOCC3)cc2)cc(C(=O)NCc2c(C)cc(C)[nH]c2=O)c1C)C1CCOCC1` + NC1CCC(NC2CC2c2ccccc2)CC1 yielded an IC50 (second compound 0.1 µM) of over 3000 nM, an IC50 (second compound 0.316 µM) of over 3000 nM and an IC50 (second compound 1 µM) of over 3000 nM. It also gave an IC50 (second compound 3.16 µM) of over 3000 nM, an IC50 (second compound 10 µM) of over 3000 nM and a viability, T/C [1] of 98.7%. For the same molecule, the viability, T/C [2] was 97%, the viability, T/C [3] was 93.6% and the viability, T/C [4] was 94.8%. The viability, T/C (second compound 0.1 µM, first compound 0.949 µM) was 82.5%, the viability, T/C (second compound 0.1 µM, first compound 3 µM) was 75% and the viability, T/C [5] was 95%. For the same molecule, the viability, T/C [6] was 113%, the viability, T/C [7] was 98.8% and the viability, T/C [8] was 93%. For the same molecule, the viability, T/C (second compound 0.316 µM, first compound 0.949 µM) was 85.5%, the viability, T/C (second compound 0.316 µM, first compound 3 µM) was 67.3% and the viability, T/C [9] was 104%. For the same molecule, the viability, T/C [10] was 103%, the viability, T/C [11] was 107% and the viability, T/C [12] was 94.2%. It also gave a viability, T/C (second compound 1 µM, first compound 0.949 µM) of 71.6%, a viability, T/C (second compound 1 µM, first compound 3 µM) of 75.8% and a viability, T/C [13] of 119%. The viability, T/C [14] was 107%, the viability, T/C [15] was 104% and the viability, T/C [16] was 94.6%. The viability, T/C (second compound 3.16 µM, first compound 0.949 µM) was 76.5%, the viability, T/C (second compound 3.16 µM, first compound 3 µM) was 56.8% and the viability, T/C [17] was 106%. For the same molecule, the viability, T/C [18] was 105%, the viability, T/C [19] was 88.7% and the viability, T/C [20] was 95.6%. For the same molecule, the viability, T/C (second compound 10 µM, first compound 0.949 µM) was 72.9% and the viability, T/C (second compound 10 µM, first compound 3 µM) was 66.9%.
`Nc1ncn(C2CC(O)C(CO)S2)c(=O)n1` (stereo not given) + NC1CCC(NC2CC2c2ccccc2)CC1 was tested, and the IC50 (second compound 0.1 µM) was over 300 nM, the IC50 (second compound 0.316 µM) was over 300 nM and the IC50 (second compound 1 µM) was over 300 nM. The IC50 (second compound 3.16 µM) was over 300 nM, the IC50 (second compound 10 µM) was over 300 nM and the viability, T/C (second compound 0.1 µM, first compound 0.000949 µM) was 97.4%. It also gave a viability, T/C (second compound 0.1 µM, first compound 0.003 µM) of 82.8%, a viability, T/C [1] of 92.1% and a viability, T/C [2] of 85.2%. The viability, T/C [3] was 86.9%, the viability, T/C [4] was 82% and the viability, T/C (second compound 0.316 µM, first compound 0.000949 µM) was 98.1%. It also gave a viability, T/C (second compound 0.316 µM, first compound 0.003 µM) of 92%, a viability, T/C [5] of 105% and a viability, T/C [6] of 93.6%. It also gave a viability, T/C [7] of 86.7%, a viability, T/C [8] of 82.1% and a viability, T/C (second compound 1 µM, first compound 0.000949 µM) of 92.8%. For the same molecule, the viability, T/C (second compound 1 µM, first compound 0.003 µM) was 84.5%, the viability, T/C [9] was 98.6% and the viability, T/C [10] was 101%. It also gave a viability, T/C [11] of 89.2%, a viability, T/C [12] of 72.4% and a viability, T/C (second compound 3.16 µM, first compound 0.000949 µM) of 94.8%. The viability, T/C (second compound 3.16 µM, first compound 0.003 µM) was 91.7%, the viability, T/C [13] was 77.4% and the viability, T/C [14] was 93.9%. It also gave a viability, T/C [15] of 77.7%, a viability, T/C [16] of 82.1% and a viability, T/C (second compound 10 µM, first compound 0.000949 µM) of 70.8%. For the same molecule, the viability, T/C (second compound 10 µM, first compound 0.003 µM) was 84.5%, the viability, T/C [17] was 84.5% and the viability, T/C [18] was 83.9%. The viability, T/C [19] was 83.2% and the viability, T/C [20] was 63.6%.
For `O=C(C=Cn1cnc(-c2cc(C(F)(F)F)cc(C(F)(F)F)c2)n1)NNc1cnccn1` + NC1CCC(NC2CC2c2ccccc2)CC1, the IC50 (second compound 0.1 µM) was 135 nM, the IC50 (second compound 0.316 µM) was 189 nM and the IC50 (second compound 1 µM) was 229 nM. It also gave an IC50 (second compound 3.16 µM) of 215 nM, an IC50 (second compound 10 µM) of 203 nM and a viability, T/C (second compound 0.1 µM, first compound 0.00316 µM) of 86.6%. The viability, T/C (second compound 0.1 µM, first compound 0.01 µM) was 91.2%, the viability, T/C (second compound 0.1 µM, first compound 0.0316 µM) was 72.9% and the viability, T/C (second compound 0.1 µM, first compound 0.1 µM) was 50.2%. For the same molecule, the viability, T/C (second compound 0.1 µM, first compound 0.316 µM) was 42.8%, the viability, T/C (second compound 0.1 µM, first compound 1 µM) was 24.6% and the viability, T/C (second compound 0.316 µM, first compound 0.00316 µM) was 84.5%. It also gave a viability, T/C (second compound 0.316 µM, first compound 0.01 µM) of 77.3%, a viability, T/C (second compound 0.316 µM, first compound 0.0316 µM) of 81.3% and a viability, T/C (second compound 0.316 µM, first compound 0.1 µM) of 53.5%. The viability, T/C (second compound 0.316 µM, first compound 0.316 µM) was 46%, the viability, T/C (second compound 0.316 µM, first compound 1 µM) was 27.4% and the viability, T/C (second compound 1 µM, first compound 0.00316 µM) was 90.5%. It also gave a viability, T/C (second compound 1 µM, first compound 0.01 µM) of 101%, a viability, T/C (second compound 1 µM, first compound 0.0316 µM) of 88.9% and a viability, T/C (second compound 1 µM, first compound 0.1 µM) of 62.4%. The viability, T/C (second compound 1 µM, first compound 0.316 µM) was 47%, the viability, T/C (second compound 1 µM, first compound 1 µM) was 18.5% and the viability, T/C (second compound 3.16 µM, first compound 0.00316 µM) was 81.9%. For the same molecule, the viability, T/C (second compound 3.16 µM, first compound 0.01 µM) was 79.3%, the viability, T/C (second compound 3.16 µM, first compound 0.0316 µM) was 92.1% and the viability, T/C (second compound 3.16 µM, first compound 0.1 µM) was 54.3%. For the same molecule, the viability, T/C (second compound 3.16 µM, first compound 0.316 µM) was 48.3%, the viability, T/C (second compound 3.16 µM, first compound 1 µM) was 23.7% and the viability, T/C (second compound 10 µM, first compound 0.00316 µM) was 87.5%. For the same molecule, the viability, T/C (second compound 10 µM, first compound 0.01 µM) was 86.6%, the viability, T/C (second compound 10 µM, first compound 0.0316 µM) was 79.1% and the viability, T/C (second compound 10 µM, first compound 0.1 µM) was 59%. It also gave a viability, T/C (second compound 10 µM, first compound 0.316 µM) of 44.8% and a viability, T/C (second compound 10 µM, first compound 1 µM) of 29.5%.
